# Assay results published in patent publication US20100092385A1, “Novel Heteroaryl Substituted Imidazo [1,2-A] Pyridine Derivatives” (ASTRAZENECA AB, priority 2007, published 2010).
# Target: T1, synthetic Aβ 1-40 (Homo sapiens, UniProt P05067)
# T1 construct: using synthetic Aβ 1-40 in 2.7 nM of [^3H]PIB
# Assay: Competition binding assay
# Settings: [3H]PIB as radioligand (2.7 nM), synthetic Aβ 1-40, phosphate buffer pH 7.5, 30 min room temperature; read-out: IC50 in the competion binding assay
# Procedure: Competition binding was performed in 384-well FB filter plates using synthetic Aβ 1-40 in 2.7 nM of [^3H]PIB (or another ^3H-labeled radioligand when so mentioned) in phosphate buffer at pH 7.5, by adding various concentrations of non-radioactive compounds originally dissolved in DMSO. The binding mixture was incubated for 30 min at room temperature, followed by vacuum filtration, and subsequently by washing twice with 1% Triton-X100. Scintillation fluid was thereafter added to the collected Aβ 1-40 on the filter plate, and the activity of the bound remaining radioligand ([^3H]PIB or another ^3H-labeled radioligand) was measured using 1450 Microbeta from PerkinElmer. Specific binding was determined according to the competion binding assay described herein. The determined IC50's in the competion binding assays (using [^3H]PIB as radioligand) of […] of the present invention are shown in Table 1.
# T1 sequence (P05067 672-711 limits assumed): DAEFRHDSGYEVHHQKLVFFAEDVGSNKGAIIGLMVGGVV
row,IC50,Structure (SMILES)
1,2.31 µM,"COc1ccc2nc(-c3ccc(C(N)=O)nc3)cn2c1 [Example 16, 5-(6-Methoxyimidazo[1,2-a]pyridin-2-yl)pyridine-2-carboxamide]"
2,1.36 µM,"COc1ccc2nc(-c3ccc(N4CCN(C(=O)OC(C)(C)C)CC4)nc3)cn2c1 [Example 9, tert-Butyl 4-[5-(6-methoxyimidazo[1,2-c]pyridin-2-yl)pyridin-2-yl]piperazine-1-carboxylate]"
3,0.709 µM,"COc1ccc2nc(-c3cnc(OC)c(Cl)c3)cn2c1 [Example 7, 2-(5-Chloro-6-methoxypyridin-3-yl)-6-methoxyimidazo[1,2-a]pyridine]"
4,8.38 µM,"COc1ccc2nc(-c3ccc(N4CCNCC4)nc3)cn2c1 [Example 8, 6-Methoxy-2-(6-piperazin-1-ylpyridin-3-yl)imidazo[1,2-a]pyridine]"
5,0.838 µM,"COc1ccc2nc(-c3cnc(OC)c(F)c3)cn2c1 [Example 6, 2-(5-Fluoro-6-methoxypyridin-3-yl)-6-methoxyimidazo[1,2-a]pyridine]"
6,2.79 µM,"NC(=O)c1ccc(-c2cn3cc(O)ccc3n2)cn1 [Example 17, 5-(6-Hydroxyimidazo[1,2-a]pyridin-2-yl)pyridine-2-carboxamide]"
7,0.739 µM,"COC(=O)c1ccc2nc(-c3ccc(N(C)C)nc3)cn2c1 [Example 19, Methyl 2-(6-dimethylaminopyridin-3-yl)imidazo[2,1-f]pyridine-6-carboxylate]"
8,2.47 µM,"CNc1ccc(-c2cn3cc(OC)ccc3n2)cn1 [Example 1, 5-(6-Methoxyimidazo[1,2-a]pyridin-2-yl)-N-methylpyridin-2-amine]"
9,17.9 µM,"O=C(OCCF)c1ccc2nc(-c3ccc(F)nc3)cn2c1 [Example 18, 2-Fluoroethyl 2-(6-fluoropyridin-3-yl)imidazo[2,1-f]pyridine-6-carboxylate]"
10,2.84 µM,"COc1ccc2nc(-c3ccc(OC)nc3)cn2c1 [Example 5, 6-Methoxy-2-(6-methoxypyridin-3-yl)imidazo[1,2-a]pyridine]"
11,0.386 µM,"COc1ccc2nc(-c3ccc(N(C)C)nc3)cn2c1 [Example 3, 5-(6-Methoxyimidazo[1,2-a]pyridin-2-yl)-N,N-dimethylpyridin-2-amine]"
12,1.59 µM,"COc1ccc2nc(-c3cnc(N4CCOCC4)nc3)cn2c1 [Example 10, 6-Methoxy-2-(2-morpholin-4-ylpyrimidin-5-yl)imidazo[1,2-a]pyridine]"
13,0.375 µM,"CNc1ccc(-c2cn3cc(O)ccc3n2)cn1 [Example 2, 2-[6-(Methylamino)pyridin-3-yl]imidazo[1,2-a]pyridin-6-ol]"
14,0.184 µM,"COc1ccc2nc(-c3ccc4[nH]ccc4c3)cn2c1 [Example 11, 2-(1H-Indol-5-yl)-6-methoxyimidazo[1,2-a]pyridine]"
15,0.126 µM,"CN(C)c1ccc(-c2cn3cc(O)ccc3n2)cn1 [Example 4, 2-[6-(Dimethylamino)pyridin-3-yl]imidazo[1,2-a]pyridin-6-ol]"
16,0.469 µM,"CNc1ccc(-c2cn3cc(C(=O)OCCF)ccc3n2)cn1 [Example 22, 2-Fluoroethyl 2-(6-methylaminopyridin-3-yl)imidazo[2,1-t]pyridine-6-carboxylate]"
17,0.96 µM,"CNc1ccc(-c2cn3cc(C(=O)OC)ccc3n2)cn1 [Example 21, Methyl 2-(6-methylaminopyridin-3-yl)imidazo[2,1-f]pyridine-6-carboxylate]"
18,16.6 µM,"CN(C)c1ccc(-c2cn3cc(C(=O)OCCF)ccc3n2)cn1 [Example 20, 2-Fluoroethyl 2-(6-dimethylaminopyridin-3-yl)imidazo[2,1-f]pyridine-6-carboxylate]"
